From patent publication US7071228B2, “Method of treating musculoskeletal and connective tissue inflammations” (priority 2002, dated 2006)

How the values were obtained:
Format in all cases: in vivo, human
[1] = system: osteoarthritis with capsulitis; test: Clinical treatment of a patient, Example 1; conditions: for benefit of earlier therapeutic treatments: before Accutane, Asprin two to five 325 mg pills per day
Procedure: (§1) Example 1 to 3 illustrate clinical effectiveness of the above described treatment method. An initial treatment and a maintenance treatment as described above were prescribed to the patients. It is noted that the patients described in the Examples were in the average weight range, therefore, an average dosage of 40 mg was used. It is noted that all patients were told to totally avoid sun exposure during the initial treatment dosage period and for the first one or two weeks after instituting the maintenance dosage because of sun sensitivity with the use of Accutane®.
A patient in generally good health had the onset of joint complaints in 1988 affecting only the hands. The main location was in the distal interphalangeal joint (IP joint) which had been fractured in 1980. Symptoms were puffiness and swelling with increasing tenderness over the years. The tenderness had become so pronounced that in 1994 they stopped shaking hands because of the pain. In addition they had progressive difficulty making a fist because of swelling and tightness of the fingers.
X-ray examination found thining of joint space and capsular swelling of the interphalangeal joints. Laboratory examination results were normal. The patient was diagnosed with osteoarthritis with capsulitis.
In April 1997 the patient started taking Accutane® (13-cis retanoid acid, Hoffmann-La Roche Inc., Nutley, N.J.) for another medical condition in an initial dosage of about 40 mg Accutane® daily for twenty one days, followed by a maintenance dosage of about 40 mg Accutane® twice a week (on Monday and Friday).

[2] = system: inflammatory osteoarthritis and rheumatism; test: Clinical treatment of a patient, Example 2; conditions: for effect of past treatment: person, before Accutane
Procedure: as §1
A person retired Navy Chief Warrant Officer was diagnosed with inflammatory osteoarthritis and rheumatism. The symptoms included joint pains for six to ten years. Initially in 1992 the join pains affected the right hip, and the patient suffered from the hip pain while working. In 1994, the patient developed neck and left shoulder pain. […] Furthermore, the shoulder was diagnosed as a rotator cuff injury. In 1997, the patient's hands became tender when playing golf. The hand condition progressed to puffiness of fingers and a gripping problem with difficulty closing hands. The patient's blood chemistry was normal.
The patient was placed on the 13-cis retanoic acid treatment on May 1, 2002 with an initial dosage about 40 mg Accutane® daily for fourteen days, followed by a maintenance dosage of about 40 mg Accutane® twice a week. […] As a result of such a significant improvement of the physical condition, the patient's golf handicap dropped from eleven (11) to nine (9).

[3] = system: musculoskeletal and connective tissue inflammations; test: Treatment of patients with initial and maintenance dosage, general findings; conditions: long term use of the low maintenance dosage
Procedure: Preferably, the treatment method further includes two treatment periods: an initial treatment, and a maintenance treatment. First, in the initial treatment, a patient administrates an initial dosage of 13-cis-retinoic acid for a period from about ten days to about five months. Thereafter, the patient administrates a lower maintenance dosage of 13-cis-retinoic acid.
The dosage is determined based on the patient's body weight. The initial dosage is in a range from about 10 mg to 80 mg 13-cis-retinoic acid daily (about 0.14 mg to about 1.1 mg per kilogram (kg) of body weight). For average men having a body weight about 160 lbs (72.6 kg), the average initial dosage is about 40 mg daily. The maintenance dosage is in a range from about 10 mg to 80 mg 13-cis-retinoic acid every three to seven days (about 0.14 mg to about 1.1 mg per kilogram (kg) of body weight). The average maintenance dosage for average men having a body weight about 160 lbs is about 40 mg every three to seven days. The dosages should be adjusted accordingly for children or those who weigh substantially less than or above the average body weight.
Furthermore, no serious adverse side effects were observed by using the described treatment. […]

osteoarthritis = test: Clinical treatment of a patient, Example 3
Procedure: as §1
A farmer, had more than a ten year history of hand pain involving fingers, and associated with swelling and tenderness of interphalangeal joints. The hand condition made their work and playing golf difficult. The patient was diagnosed with osteoarthritis.
The patient was placed on 13-cis retanoic acid treatment in April of 2001, with an initial dosage of about 40 mg Accutane® daily for twenty one days, followed by a maintenance dosage of about 40 mg Accutane® twice a week. […] The improvements were maintained during a subsequent six month continuation of the maintenance dosage.

[4] = about 40 mg daily 21 days, then 40 mg twice a week
[5] = 40 mg daily 14 days, then 40 mg twice a week

CC1=C(/C=C/C(C)=C/C=C/C(C)=C\C(=O)O)C(C)(C)CCC1 [Accutane, 13-cis-retinoic acid]
cervical spine tenderness [1, 4]: slow improvement
fibro calcified peri-spinous nodules of cervical spine [1, 4]: dissolution
range of motion (ROM), cervical spine [1, 4]: increased range of motion
stiff and painful shoulder condition (old rotator cuff injury, right shoulder) ([1]; about 40 mg daily 21 days, then 40 mg twice a week, over the ensuing months): improvement
blood-chemistries and hematology test results ([1]; continued maintenance dosage): remained normal
overall physical well being / musculoskeletal infirmities ([1]; continued maintenance dosage): no longer has any musculoskeletal infirmities
right shoulder pain during the initial treatment ([1]; initial treatment about 40 mg daily): increased right shoulder pain was noted, which then abated
physical side effects ([1]; long-term maintenance dosage 40 mg twice a week): No physical side effects have been noted other than dry lips and skin in the early stages
hand condition ([1]; person, about 40 mg daily for 21 days, then about 40 mg twice a week, over the ensuing months): gradual, but steady improvement
hand puffiness and grip problems [2, 5]: no longer exist
side effects [2, 5]: minimal side effects
shoulder pain ([2]; about 40 mg daily 14 days, then 40 mg twice a week, after total of seven weeks, physical therapy continued): completely abated
range of movement (shoulder) ([2]; after total of seven weeks of treatment): returned to normal
neck and hip pains ([2]; as of August, 2002 (start May 1, 2002)): almost completely abated
hand tenderness ([2]; if they play golf three to four days in a row): still exhibit a tinge of tenderness
long term effect on musculoskeletal and connective tissue inflammations [3]: provides a long term control
range of movement (osteoarthritis; after ten weeks treatment): improvement
swelling and tenderness of the fingers (osteoarthritis; after ten weeks treatment): decreased
pre-therapy and follow-up blood tests (osteoarthritis; human, in vivo): normal
symptoms (osteoarthritis; person, about 40 mg daily 21 days, then 40 mg twice a week, after ten weeks treatment): began to improve
persistence of improvements (osteoarthritis; subsequent six month continuation of the maintenance dosage): maintained
side effects (osteoarthritis; subsided after taking the maintenance dosage): no side effects other than dry lips and skin

COc1ccc2cc([C@H](C)C(=O)O)ccc2c1 [Naprosyn, naproxen]
benefit of earlier therapeutic treatments [1]: minimal or no benefit

CC(C)Cc1ccc(C(C)C(=O)O)cc1 (stereo not drawn) [Motrin, ibuprofen]
benefit of earlier therapeutic treatments [1]: minimal or no benefit
effect of past treatment [2]: minimal effect

CC(=O)Oc1ccccc1C(=O)O [Aspirin]
benefit of earlier therapeutic treatments [1]: minimal or no benefit
effect of past treatment [2]: minimal effect
